Data as given in paper PMC5218480 (PLoS ONE, 2017).

System: MV-4-11 cells
Experiment: Gene expression microarray analysis (Affymetrix PrimeView) and GSEA
Format: cell-based, human
Parameters: RFU PODN (11730768_x_at) / Fold change /veh PODN (11730768_x_at) / RFU LINC00158 (11744669_a_at) / Fold change /veh LINC00158 (11744669_a_at) / RFU DUSP10 (11751237_a_at) / Fold change /veh DUSP10 (11751237_a_at) / RFU ID3 (11757404_x_at) / Fold change /veh ID3 (11757404_x_at) / RFU PLEKHG5 (11737974_s_at) / Fold change /veh PLEKHG5 (11737974_s_at) / RFU LRRC4B (11730491_at) / Fold change /veh LRRC4B (11730491_at) / RFU GIMAP4 (11747438_a_at) / Fold change /veh GIMAP4 (11747438_a_at) / RFU KRT8 (11758183_x_at) / Fold change /veh KRT8 (11758183_x_at) / RFU CNN1 (11734310_a_at) / Fold change /veh CNN1 (11734310_a_at) / RFU VPS37D (11726825_at) / Fold change /veh VPS37D (11726825_at) / RFU C10orf10 (11716522_x_at) / Fold change /veh C10orf10 (11716522_x_at) / RFU KIR2DL2 /// KIR2DL4 /// KIR2DL5A /// KIR2DL5B /// KIR2DS1 /// KIR2DS2 /// KIR2DS3 /// KIR2DS4 /// KIR3DL3 /// KIR3DL3 /// KIR3DS1 (11738374_at) / Fold change /veh KIR2DL2 /// KIR2DL4 /// KIR2DL5A /// KIR2DL5B /// KIR2DS1 /// KIR2DS2 /// KIR2DS3 /// KIR2DS4 /// KIR3DL3 /// KIR3DL3 /// KIR3DS1 (11738374_at) / RFU C1QL1 (11718748_at) / Fold change /veh C1QL1 (11718748_at) / RFU TMPRSS4 (11747572_a_at) / Fold change /veh TMPRSS4 (11747572_a_at) / RFU HAMP (11756126_x_at) / Fold change /veh HAMP (11756126_x_at) / RFU RNFT2 (11725882_a_at) / Fold change /veh RNFT2 (11725882_a_at) / RFU NR4A2 (11747474_a_at) / Fold change /veh NR4A2 (11747474_a_at) / RFU ABCC12 (11746883_a_at) / Fold change /veh ABCC12 (11746883_a_at) / RFU TMEM136 (11760407_x_at) / Fold change /veh TMEM136 (11760407_x_at) / RFU CLDN22 /// WWC2 (11732394_at) / Fold change /veh CLDN22 /// WWC2 (11732394_at) / RFU HLA-DPB1 (11760878_x_at) / Fold change /veh HLA-DPB1 (11760878_x_at) / RFU SPINT1 (11716480_a_at) / Fold change /veh SPINT1 (11716480_a_at) / RFU GAP43 (11754022_s_at) / Fold change /veh GAP43 (11754022_s_at) / RFU A4GNT (11735810_at) / Fold change /veh A4GNT (11735810_at) / RFU PRB3 (11715151_x_at) / Fold change /veh PRB3 (11715151_x_at) / RFU TUBB4B (11761932_at) / Fold change /veh TUBB4B (11761932_at) / RFU CAPN14 (11732068_a_at) / Fold change /veh CAPN14 (11732068_a_at) / RFU TMCC2 (11721928_a_at) / Fold change /veh TMCC2 (11721928_a_at) / RFU IRGQ (11745062_a_at) / Fold change /veh IRGQ (11745062_a_at) / RFU FAM174B (11720279_a_at) / Fold change /veh FAM174B (11720279_a_at) / RFU TMPRSS4 (11748680_a_at) / Fold change /veh TMPRSS4 (11748680_a_at) / RFU FAM212B (11763350_a_at) / Fold change /veh FAM212B (11763350_a_at) / RFU PLEKHG5 (11743358_a_at) / Fold change /veh PLEKHG5 (11743358_a_at) / RFU ZSCAN30 (11745921_a_at) / Fold change /veh ZSCAN30 (11745921_a_at) / RFU CMKLR1 (11741424_a_at) / Fold change /veh CMKLR1 (11741424_a_at) / RFU LOC101060620 /// MAPK8IP1 (11723275_at) / Fold change /veh LOC101060620 /// MAPK8IP1 (11723275_at) / RFU SPTSSB (11747773_x_at) / Fold change /veh SPTSSB (11747773_x_at) / RFU PRSS12 (11739890_at) / Fold change /veh PRSS12 (11739890_at) / RFU BIN1 (11741810_x_at) / Fold change /veh BIN1 (11741810_x_at) / RFU WNT11 (11732464_a_at) / Fold change /veh WNT11 (11732464_a_at) / RFU C10orf10 (11716521_a_at) / Fold change /veh C10orf10 (11716521_a_at) / RFU C5orf56 (11738089_at) / Fold change /veh C5orf56 (11738089_at) / RFU CYB561 (11721691_x_at) / Fold change /veh CYB561 (11721691_x_at) / RFU ANKRD19P (11752326_a_at) / Fold change /veh ANKRD19P (11752326_a_at) / RFU OR2T12 /// OR2T33 /// OR2T8 (11738714_s_at) / Fold change /veh OR2T12 /// OR2T33 /// OR2T8 (11738714_s_at) / RFU VCAN (11748164_a_at) / Fold change /veh VCAN (11748164_a_at) / RFU JSRP1 (11732532_at) / Fold change /veh JSRP1 (11732532_at) / RFU KRTAP10-11 (11738290_x_at) / Fold change /veh KRTAP10-11 (11738290_x_at) / RFU MYO3A (11730013_a_at) / Fold change /veh MYO3A (11730013_a_at) / RFU EBF3 (11725865_a_at) / Fold change /veh EBF3 (11725865_a_at) / RFU CAMK2N1 (11719241_x_at) / Fold change /veh CAMK2N1 (11719241_x_at) / RFU C5orf56 (11738088_a_at) / Fold change /veh C5orf56 (11738088_a_at) / RFU OLFML3 (11715873_a_at) / Fold change /veh OLFML3 (11715873_a_at) / RFU LOC100653217 /// NTM (11731650_a_at) / Fold change /veh LOC100653217 /// NTM (11731650_a_at) / RFU MAPK11 (11762145_a_at) / Fold change /veh MAPK11 (11762145_a_at) / RFU FIZ1 (11724087_x_at) / Fold change /veh FIZ1 (11724087_x_at) / RFU OASL (11726364_x_at) / Fold change /veh OASL (11726364_x_at) / RFU SOX15 (11748057_x_at) / Fold change /veh SOX15 (11748057_x_at) / RFU CD79A (11719716_a_at) / Fold change /veh CD79A (11719716_a_at) / RFU HIST1H1D (11736915_at) / Fold change /veh HIST1H1D (11736915_at) / RFU CASKIN2 (11723855_a_at) / Fold change /veh CASKIN2 (11723855_a_at) / RFU LOC730098 (11760151_x_at) / Fold change /veh LOC730098 (11760151_x_at) / RFU OR4N2 (11742367_at) / Fold change /veh OR4N2 (11742367_at) / RFU PRRT2 (11749266_a_at) / Fold change /veh PRRT2 (11749266_a_at) / RFU SNX32 (11753110_a_at) / Fold change /veh SNX32 (11753110_a_at) / RFU CDHR5 (11726645_a_at) / Fold change /veh CDHR5 (11726645_a_at) / RFU RCAN1 (11760418_a_at) / Fold change /veh RCAN1 (11760418_a_at) / RFU FAM167A (11723789_a_at) / Fold change /veh FAM167A (11723789_a_at) / RFU FAM26E (11764081_at) / Fold change /veh FAM26E (11764081_at) / RFU ISYNA1 (11749810_s_at) / Fold change /veh ISYNA1 (11749810_s_at) / RFU ACY1 (11761880_at) / Fold change /veh ACY1 (11761880_at) / RFU 11764098_at / Fold change /veh 11764098_at / RFU SAMD14 (11745864_x_at) / Fold change /veh SAMD14 (11745864_x_at) / RFU NPB (11741838_a_at) / Fold change /veh NPB (11741838_a_at) / RFU TMPRSS6 (11731388_a_at) / Fold change /veh TMPRSS6 (11731388_a_at) / RFU KRTAP10-2 (11738614_at) / Fold change /veh KRTAP10-2 (11738614_at) / RFU ARHGAP8 /// PRR5-ARHGAP8 (11727945_x_at) / Fold change /veh ARHGAP8 /// PRR5-ARHGAP8 (11727945_x_at) / RFU KRTAP5-7 /// NADSYN1 (11734609_at) / Fold change /veh KRTAP5-7 /// NADSYN1 (11734609_at) / RFU RASL12 (11751679_a_at) / Fold change /veh RASL12 (11751679_a_at) / RFU CDKN2B (11736163_a_at) / Fold change /veh CDKN2B (11736163_a_at) / RFU PRF1 (11729649_at) / Fold change /veh PRF1 (11729649_at) / RFU, ZNF638 /// ZNF638-IT1 / Fold change vs veh, ZNF638 /// ZNF638-IT1 / RFU, PANK3 / Fold change vs veh, PANK3 / RFU, SH3YL1 / Fold change vs veh, SH3YL1 / RFU, ZEB2 / Fold change vs veh, ZEB2 / RFU, NRIP1 / Fold change vs veh, NRIP1 / RFU, PTTG1IP / Fold change vs veh, PTTG1IP / RFU, CAPN2 / Fold change vs veh, CAPN2 / RFU, MED14 / Fold change vs veh, MED14 / RFU, SNORA58 / Fold change vs veh, SNORA58 / RFU, C1orf63 / Fold change vs veh, C1orf63 / RFU, LRRFIP1 / Fold change vs veh, LRRFIP1 / RFU, NDUFAF7 / Fold change vs veh, NDUFAF7 / RFU, SLC12A2 / Fold change vs veh, SLC12A2 / RFU, IBTK / Fold change vs veh, IBTK / RFU, ESF1 / Fold change vs veh, ESF1 / Fold change vs veh, TMEM50B / RFU, TAOK1 / Fold change vs veh, TAOK1 / RFU, ACBD3 / Fold change vs veh, ACBD3 / RFU, TMA16 / Fold change vs veh, TMA16 / RFU, RWDD3 / Fold change vs veh, RWDD3 / RFU, BCAT1 / Fold change vs veh, BCAT1 / RFU, EDEM3 / Fold change vs veh, EDEM3 / RFU, TMEM33 / Fold change vs veh, TMEM33 / RFU, WDR75 / Fold change vs veh, WDR75 / RFU, AHCTF1 / Fold change vs veh, AHCTF1 / RFU, TFRC / Fold change vs veh, TFRC / RFU, ZDHHC17 / Fold change vs veh, ZDHHC17 / RFU, NOM1 / Fold change vs veh, NOM1 / RFU, ARL8B / Fold change vs veh, ARL8B / RFU, ZBTB11 / Fold change vs veh, ZBTB11 / RFU, TAMM41 / Fold change vs veh, TAMM41 / RFU, KIAA1704 /// LOC100996395 / Fold change vs veh, KIAA1704 /// LOC100996395 / RFU, ING1 / Fold change vs veh, ING1 / RFU, TRMT61B / Fold change vs veh, TRMT61B / RFU, FUBP3 / Fold change vs veh, FUBP3 / RFU, TP53 / Fold change vs veh, TP53 / RFU, TNKS2 / Fold change vs veh, TNKS2 / RFU, ZFP14 / Fold change vs veh, ZFP14 / RFU, ACTR2 / Fold change vs veh, ACTR2 / RFU, PPP3R1 / Fold change vs veh, PPP3R1 / RFU, PIK3R1 / Fold change vs veh, PIK3R1 / RFU, HNRNPA1 / Fold change vs veh, HNRNPA1 / RFU, RNF170 / Fold change vs veh, RNF170 / RFU, ZNF28 / Fold change vs veh, ZNF28 / RFU, RNGTT / Fold change vs veh, RNGTT / RFU, OGT / Fold change vs veh, OGT / RFU, BRD1 / Fold change vs veh, BRD1 / RFU, MARS / Fold change vs veh, MARS / RFU, ZNF655 / Fold change vs veh, ZNF655 / RFU, FAHD1 / Fold change vs veh, FAHD1 / RFU, BDP1 / Fold change vs veh, BDP1 / RFU, LRRCC1 / Fold change vs veh, LRRCC1 / RFU, ARID1A / Fold change vs veh, ARID1A / RFU, ZNF146 / Fold change vs veh, ZNF146 / RFU, ZNF330 / Fold change vs veh, ZNF330 / RFU, GPN3 / Fold change vs veh, GPN3 / RFU, C9orf123 / Fold change vs veh, C9orf123 / RFU, N4BP2L2 / Fold change vs veh, N4BP2L2 / RFU, ARFIP1 / Fold change vs veh, ARFIP1 / RFU, FAM179B / Fold change vs veh, FAM179B / RFU, BCL10 / Fold change vs veh, BCL10 / RFU, UHRF1BP1L / Fold change vs veh, UHRF1BP1L / RFU, BET1 / Fold change vs veh, BET1 / RFU, CNOT2 / Fold change vs veh, CNOT2 / RFU, ZNF268 / Fold change vs veh, ZNF268 / Fold change vs veh, ZNF507 / RFU, DGCR2 / Fold change vs veh, DGCR2 / RFU, WDSUB1 / Fold change vs veh, WDSUB1 / Fold change vs veh, HSP90B1 /// MIR3652 / RFU, ADSS / Fold change vs veh, ADSS / RFU, GK / Fold change vs veh, GK / RFU, ZNF148 / Fold change vs veh, ZNF148 / RFU, TAF9 / Fold change vs veh, TAF9 / RFU, SLC1A5 / Fold change vs veh, SLC1A5 / RFU, SLMO2 / Fold change vs veh, SLMO2 / RFU, ABCC4 / Fold change vs veh, ABCC4 / RFU, LOC101060439 /// RAP1B / Fold change vs veh, LOC101060439 /// RAP1B / RFU, RFX7 / Fold change vs veh, RFX7 / RFU, GTPBP10 / Fold change vs veh, GTPBP10 / RFU, CNEP1R1 / Fold change vs veh, CNEP1R1 / RFU, BIVM-ERCC5 /// ERCC5 / Fold change vs veh, BIVM-ERCC5 /// ERCC5 / RFU, ILF3 / Fold change vs veh, ILF3 / RFU 11762660_at / Fold change /veh 11762660_at / RFU VCAN (11757783_s_at) / Fold change /veh VCAN (11757783_s_at) / RFU DDX43 (11728927_at) / Fold change /veh DDX43 (11728927_at) / RFU KRT8 (11758188_x_at) / Fold change /veh KRT8 (11758188_x_at) / RFU NKD1 (11759106_at) / Fold change /veh NKD1 (11759106_at) / RFU SRD5A1 (11742802_a_at) / Fold change /veh SRD5A1 (11742802_a_at) / RFU TPSAB1 /// TPSB2 (11721975_s_at) / Fold change /veh TPSAB1 /// TPSB2 (11721975_s_at) / RFU GSTM3 (11746129_a_at) / Fold change /veh GSTM3 (11746129_a_at) / RFU IL23R (11737362_x_at) / Fold change /veh IL23R (11737362_x_at) / RFU TMEM51 (11727254_a_at) / Fold change /veh TMEM51 (11727254_a_at) / RFU PIWIL2 (11732686_x_at) / Fold change /veh PIWIL2 (11732686_x_at) / RFU ORM1 (11744905_x_at) / Fold change /veh ORM1 (11744905_x_at) / RFU CCDC152 (11743942_at) / Fold change /veh CCDC152 (11743942_at) / RFU ECM1 (11717891_a_at) / Fold change /veh ECM1 (11717891_a_at) / RFU IL23R (11748794_a_at) / Fold change /veh IL23R (11748794_a_at) / RFU TNFAIP8L3 (11732012_x_at) / Fold change /veh TNFAIP8L3 (11732012_x_at) / RFU MBOAT4 (11741988_at) / Fold change /veh MBOAT4 (11741988_at) / RFU 11764193_at / Fold change /veh 11764193_at / RFU TMEM53 (11763286_at) / Fold change /veh TMEM53 (11763286_at) / RFU MAGEB2 (11727129_at) / Fold change /veh MAGEB2 (11727129_at) / RFU TMEM200A (11744735_a_at) / Fold change /veh TMEM200A (11744735_a_at) / RFU CCDC152 (11751479_a_at) / Fold change /veh CCDC152 (11751479_a_at) / RFU FAM211A (11726209_a_at) / Fold change /veh FAM211A (11726209_a_at) / RFU RGS16 (11746705_a_at) / Fold change /veh RGS16 (11746705_a_at) / RFU VCAN (11755009_s_at) / Fold change /veh VCAN (11755009_s_at) / RFU RHOB (11743442_s_at) / Fold change /veh RHOB (11743442_s_at) / RFU RGS16 (11720943_a_at) / Fold change /veh RGS16 (11720943_a_at) / RFU RGS16 (11720944_at) / Fold change /veh RGS16 (11720944_at) / RFU, VPS4B / Fold change vs veh, VPS4B / RFU, CREB1 / Fold change vs veh, CREB1 / RFU, DNAJC13 / Fold change vs veh, DNAJC13 / RFU, GNAQ / Fold change vs veh, GNAQ / RFU, CDK5R1 / Fold change vs veh, CDK5R1 / RFU, ZRANB3 / Fold change vs veh, ZRANB3 / RFU, CUL4A / Fold change vs veh, CUL4A / RFU, CCNY / Fold change vs veh, CCNY / RFU, UFL1 / Fold change vs veh, UFL1 / RFU, COG3 / Fold change vs veh, COG3 / RFU, DIAPH2 / Fold change vs veh, DIAPH2 / RFU, SKA2 / Fold change vs veh, SKA2 / RFU, AFF3 / Fold change vs veh, AFF3 / RFU, LMF1 / Fold change vs veh, LMF1 / RFU, IPO11 / Fold change vs veh, IPO11 / RFU, DFFB / Fold change vs veh, DFFB / RFU, FOXP1 / Fold change vs veh, FOXP1 / RFU, CARD8 / Fold change vs veh, CARD8 / RFU, STRN3 / Fold change vs veh, STRN3 / RFU, ADK / Fold change vs veh, ADK / RFU, RASSF2 / Fold change vs veh, RASSF2 / RFU, WIPF1 / Fold change vs veh, WIPF1 / RFU, LARP1B / Fold change vs veh, LARP1B / RFU, RASA1 / Fold change vs veh, RASA1 / RFU, RB1 / Fold change vs veh, RB1 / RFU, PPFIA1 / Fold change vs veh, PPFIA1 / RFU, MAT2A / Fold change vs veh, MAT2A / RFU, CCT5 / Fold change vs veh, CCT5 / RFU, WDR92 / Fold change vs veh, WDR92 / RFU, CUX1 / Fold change vs veh, CUX1 / RFU, TTC7A / Fold change vs veh, TTC7A / RFU, TMEM135 / Fold change vs veh, TMEM135 / RFU, DEPTOR / Fold change vs veh, DEPTOR / RFU, CPM / Fold change vs veh, CPM / RFU, DNAJB6 / Fold change vs veh, DNAJB6 / RFU, CACNA2D3 / Fold change vs veh, CACNA2D3 / RFU, DTX4 / Fold change vs veh, DTX4 / RFU, TFCP2 / Fold change vs veh, TFCP2 / RFU, GMCL1 /// GMCL1P1 / Fold change vs veh, GMCL1 /// GMCL1P1 / RFU, AEBP2 / Fold change vs veh, AEBP2 / RFU, SNHG1 /// SNORD22 /// SNORD25 /// SNORD26 /// SNORD27 /// SNORD28 /// SNORD29 /// SNORD31 / Fold change vs veh, SNHG1 /// SNORD22 /// SNORD25 /// SNORD26 /// SNORD27 /// SNORD28 /// SNORD29 /// SNORD31 / Fold change (Aza/veh), C12orf56 (ProbeSet 11735607_a_at) / Fold change (ACY-1035/veh), C12orf56 (ProbeSet 11735607_a_at) / Fold change (Aza/veh), FGFR1OP (ProbeSet 11751329_s_at) / Fold change (ACY-1035/veh), FGFR1OP (ProbeSet 11751329_s_at) / Fold change (Aza/veh), VPS36 (ProbeSet 11739960_a_at) / Fold change (ACY-1035/veh), VPS36 (ProbeSet 11739960_a_at) / RFU SYPL1 (11715823_x_at) / Fold change /veh SYPL1 (11715823_x_at) / RFU IGFBP7 (11715501_s_at) / Fold change /veh IGFBP7 (11715501_s_at) / RFU REEP3 (11722064_at) / Fold change /veh REEP3 (11722064_at) / RFU IGLL1 (11728026_x_at) / Fold change /veh IGLL1 (11728026_x_at): dose or concentration left out as unconfirmed
Conditions: ProbeSet 11720154_at; LIST B

Nc1ncn([C@@H]2O[C@H](CO)[C@@H](O)[C@H]2O)c(=O)n1 [azacitidine]
RFU, NRIP1: 462.80 RFU
